Here are results for four compounds from patent US9049814B2, “Coated seeds and methods of making coated seeds” (VamTech, LLC, priority 2007, dated 2015).

Series [1] concerns VAM-infected roots of oats. The following applies: thereby decreasing phosphorus uptake; cited from earlier work.
The subject of another series is Glomus mosseae. The following applies: cited from earlier work.
The subject of series [2] is mycorrhizal colonization of Leucaena leucocephala. The following applies: in vivo; cited from earlier work.
Series [3] deals with VAM fungi (Glomus etunicatum, Glomus clarum, Entrophospora columbiana, Glomus intraradices) on corn roots. The series is described as follows: VAM colonization of corn roots from Myconate over-treated seed (2007). The series is classed as in vivo, Zea mays L. Conditions: for % Root colonization by VAM: Mean (%) / % Root colonization by VAM in 5 replicates: A / % Root colonization by VAM in 5 replicates: B / % Root colonization by VAM in 5 replicates: C / % Root colonization by VAM in 5 replicates: D / % Root colonization by VAM in 5 replicates: E: variety BH, fungicide/insecticide pre-treated seed; for % Root colonization by VAM: Mean (%): mean of 5 replicates; for % Root colonization by VAM in 5 replicates: A: replicate A; for % Root colonization by VAM in 5 replicates: B: replicate B; for % Root colonization by VAM in 5 replicates: C: replicate C; for % Root colonization by VAM in 5 replicates: D: replicate D; for % Root colonization by VAM in 5 replicates: E: replicate E. The method, then:
Methods: This study was conducted between February-April 2007 in a greenhouse at the Formosa Agricultural and Environmental Research Center using hybrid corn plants (Zea mays L.) var. Beck's Hybrids 5959 (HB) and Dow/Mycogen 2D675 (PG). The hybrid corn seed was purchased from commercial sources and was pre-treated with one of two fungicidal/insecticidal seed treatments. Variety HB was commercially treated with Beck's “SureGro” containing fludioxonil and mefenoxam fungicides; together with Agriliance Actellic 5E (a.i. pirimiphos-methyl) insecticide, according to label directions. Variety PG was commercially treated with Syngenta “Cruiser Extreme” (a.i. fludioxonil, mefenoxam and azoxystrobin fungicides plus thiamethoxam insecticide) according to label directions.
Subsequently, the corn seed was over-treated with one of two formulations of Myconate. One formulation contained 98% potassium formononetinate (kf) together with Polykote polymer; and the other, 100% acid formononetin (afP) together with Polykote polymer, wetting agent, colorant, and preservative. The kf treatments, 1 through 6 in Table 6, contained varying amounts of potassium formononetinate and were applied using a lab bench apparatus. The afP treatments, 18 and 19, were applied using commercial equipment. Treated HB seed received the kf treatment of potassium formononetinate at rates of 0.2 to 5.6 mg/seed. Treated PG seed received the afP treatment of formononetin at single rate of 0.8 mg/seed. The concentration of formononetin per seed was calculated by gravimetric measurement of the coating applied to the seed.
The controls for the kf treatments involved two seed samples, 7 and 8, both untreated with kf and one of these was also untreated with VAM spores. The control for the afP treatment was treated with afP but was not treated with VAM. The various treatments, including the addition of VAM spores to the growing medium prior to sowing for VAM development studies are described schematically in Table 6.
The colonization rate of VAM fungi on corn roots was determined using methods commonly used to quantify vesicular arbuscular mycorrhiza (Kormanik PP and AC McGraw (1984) Quantification of vesicular-arbuscular mycorrhizae in plant roots. In N. C. Schenck (ed.) Methods and Principles of Mycorrhizal Research. American Phytopathological Society, St. Paul, Minn.; Phillips J M and D S Hayman (1970) Improved procedures for clearing roots and staining parasitic and vesicular-arbuscular mycorrhizal fungi for rapid assessment of infection. Trans. Br. Mycol. Soc. 55:158-160; Read D J, H K Koncheki and J Hodgson (1976) Vesicular-arbuscular mycorrhiza in natural vegetation systems. New Phytol. 77:641-653). Speedling tray cells (30 ml volume) were partially (⅔) filled with autoclaved Miraco-III potting mix and inoculated with 95 spores of VAM cocktail (Lot No. 12-14-04). The VAM cocktail contained spores of Glomus etunicatum, Glomus clarum, Entrophospora columbiana and Glomus intraradices. The cocktail was prepared by mixing dry-sieved (179 microns) spore preparations of G. entunicatum, G. clarum and E. columbiana with dry root pieces containing the intraradical spores of G. intraradices. Each fungal species was individually produced and processed using a pot culture technique. The cells were then filled with Miraco-III mix. After sowing, (one seed per cell, 9-20 seed per treatment), the trays were incubated under continuous light at room temperature. Ten days after sowing, five seedlings from each experimental treatment and 10 from two untreated controls (Treatments 7 and 8) were randomly selected and transplanted to 1-liter cups containing a sand-based medium. The cups were incubated in a greenhouse and a low phosphorus (P) nutrient solution (1.175 ppm) was applied to all treatments 1-2 times per week as needed to maintain proper soil moisture. […]

The subject of series [4] is VAM fungi (4 species VAM fungal cocktail) on corn plants. Description: Percent VAM development on 6-week-old corn plants from coated seed (2006). The series is classed as in vivo. Conditions: for % VAM: 6-week-old corn plants, 95 VAM spores, low P; for % VAM, averaged: average across treatments, base VAM level 54% without treatment. The text has this:
Example 1 describes experimental studies carried out, in spring and summer of 2006 to evaluate the effects of different commercial fungicide seed coatings on VAM development in germinated corn seedlings in the presence and absence of alkali formononetinate. All corn seed coatings were done by Sub-Sahara International, Inc. (now owned by Becker Underwood Inc.) using standard coating procedures. The treater used was an RP-14 rotary seed coating machine manufactured by Sedpell in Canada. Successive applications were made with the fungicides being applied first according to the label instructions; then, when the seeds were dry they were over-coated with the alkali (potassium) formononetinate.
Fungicides were applied as a high viscosity, liquid suspension formulations according to the use directions on the respective labels.
The alkali formononetinate was dissolved in water and Polykote added according to the following ratios by weight: water—70 parts; alkali formononetinate—45 parts; Polykote—20 parts.
Seed germination and VAM development tests were carried out in a greenhouse at the Formosa Agricultural and Environmental Research Center, LaWard, Tex.
Percent VAM development was determined, within 3 weeks of treatment, on five, 6-week-old corn plants (from seeding) per treatment planted in sterile potting soil containing 95 spores of a 4 species VAM fungal cocktail at low P concentration. Originally 10 plants per treatment were installed in 30 ml Seedling® cells and after 10 days, 5 were transplanted into 1 liter containers.

Structures are written as SMILES.

As for `O=[N+]([O-])c1c(Cl)c(Cl)c(Cl)c(Cl)c1Cl` [PCNB, pentachloronitrobenzene], the “VAM-infected root length of oats” value in series [1] is listed as “decreased”.
Take `CCCCNC(=O)n1c(NC(=O)OC)nc2ccccc21` [benomyl]: in the series with Glomus mosseae, the “Growth of the vesicular arbuscular mycorrhizal fungus Glomus mosseae” value is on record as “affected”.
For the compound `N#Cc1c(Cl)c(Cl)c(Cl)c(C#N)c1Cl` [chlorothalonil], in series [2], the “mycorrhizal colonization, phosphorus concentration, and dry matter yields of Leucaena leucocephala” value is “decrease”.
Regarding `COc1ccc(-c2coc3cc([O-])ccc3c2=O)cc1.[K+]` [Myconate kf, potassium formononetinate], the “increase of VAM colonization” value in series [3] (1.6 mg/seed) is on record as “approximately 30%”; in series [3] (commercial use rate (0.8 mg/seed), over the untreated control (24.2% VAM colonization)) it was 81%. Moreover, the “% Root colonization by VAM: Mean (%)” value turned out to be 41.0% in series [3] (Treatment 1: 0.2 mg/seed kf); 43.6% in series [3] (Treatment 2: 0.4 mg/seed kf); 43.8% in series [3] (Treatment 3: 0.8 mg/seed kf); 32.0% in series [3] (Treatment 4: 1.6 mg/seed kf); 25.0% in series [3] (Treatment 5: 4.0 mg/seed kf); 18.2% in series [3] (Treatment 6: 5.6 mg/seed kf). In addition, the “% Root colonization by VAM in 5 replicates: A” value in series [3] (Treatment 1: 0.2 mg/seed kf) worked out at 40%; in series [3] (Treatment 2: 0.4 mg/seed kf), 44%; in series [3] (Treatment 3: 0.8 mg/seed kf) it was 45%; in series [3] (Treatment 4: 1.6 mg/seed kf) it was 30%; in series [3] (Treatment 5: 4.0 mg/seed kf), 27%; in series [3] (Treatment 6: 5.6 mg/seed kf), 19%. The “% Root colonization by VAM in 5 replicates: B” value in series [3] (Treatment 1: 0.2 mg/seed kf) is recorded as 47%; in series [3] (Treatment 2: 0.4 mg/seed kf) it was 48%; in series [3] (Treatment 3: 0.8 mg/seed kf), 42%; in series [3] (Treatment 4: 1.6 mg/seed kf), 39%; in series [3] (Treatment 5: 4.0 mg/seed kf), 21%; in series [3] (Treatment 6: 5.6 mg/seed kf), 12%. Moreover, the “% Root colonization by VAM in 5 replicates: C” value in series [3] (Treatment 1: 0.2 mg/seed kf) is recorded as 41%; in series [3] (Treatment 2: 0.4 mg/seed kf), 45%; in series [3] (Treatment 3: 0.8 mg/seed kf) it was 47%; in series [3] (Treatment 4: 1.6 mg/seed kf), 28%; in series [3] (Treatment 5: 4.0 mg/seed kf), 31%; in series [3] (Treatment 6: 5.6 mg/seed kf), 25%. Moreover, the “% Root colonization by VAM in 5 replicates: D” value in series [3] (Treatment 1: 0.2 mg/seed kf) is 39%; in series [3] (Treatment 2: 0.4 mg/seed kf), 40%; in series [3] (Treatment 3: 0.8 mg/seed kf) it was 45%; in series [3] (Treatment 4: 1.6 mg/seed kf) it was 35%; in series [3] (Treatment 5: 4.0 mg/seed kf), 24%; in series [3] (Treatment 6: 5.6 mg/seed kf), 18%. The “% Root colonization by VAM in 5 replicates: E” value in series [3] (Treatment 1: 0.2 mg/seed kf) is recorded as 38%; in series [3] (Treatment 2: 0.4 mg/seed kf), 41%; in series [3] (Treatment 3: 0.8 mg/seed kf), 40%; in series [3] (Treatment 4: 1.6 mg/seed kf) it was 28%; in series [3] (Treatment 5: 4.0 mg/seed kf), 22%; in series [3] (Treatment 6: 5.6 mg/seed kf), 17%. Besides, the “effect on VAM colonization” value in series [3] (at or above 4.0 mg/seed) is given as “decreased VAM colonization”. Moreover, the entries for the “% VAM” value in series [4] (0.5 mg alkali formononetinate/seed over-coated on the named fungicide (or none)) and in series [4] (1.0 mg alkali formononetinate/seed over-coated on the named fungicide (or none)) were 61% and 66%, respectively. Further, the “% VAM, averaged” value in series [4] (0.5 mg alkali formononetinate/seed) came out at 67%; in series [4] (1.0 mg alkali formononetinate/seed), 73%.
